Laboratory results from patent US7803930B2, “Antisense modulation of apolipoprotein B-expression” (Isis Pharmaceuticals, Inc., priority 2002, dated 2010).
In the oligonucleotide strings, read from the 5' end, every base follows the letter of its sugar. An asterisk marks phosphorothioate; unmarked linkages are phosphodiester. Other units and linkages are bracketed, terminal groups are in braces. A string of capitals states the bases alone. e = 2'-O-(2-methoxyethyl) (MOE); [5mC] = 5-methylcytosine; d = 2'-deoxy (DNA)

Columns and labels:
[1] = tested on: apolipoprotein B mRNA; assay: ob/ob mice (Example 50): apolipoprotein B mRNA levels in liver; type: in vivo, mouse; settings: high fat high cholesterol diet, 50 mg/kg i.p. twice a week, six weeks
Outline: (§1)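 Ob/ob mice on 60% kcal fat diet with 0.15% cholesterol received 50 mg/kg oligonucleotide i.p. twice weekly for six weeks, with saline and control oligonucleotides.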

[2] = ob/ob mice (Example 50): cholesterol, lipid, triglyceride, liver enzyme and glucose levels; type: in vivo, mouse; settings: high fat high cholesterol diet, 50 mg/kg i.p. twice a week, six weeks
Outline: as §1

[3] = tested on: apolipoprotein B mRNA; assay: ApoE knockout mice (Example 28): target mRNA levels in liver; type: in vivo, mouse; settings: high fat diet, six weeks
Text: Female ApoE knockout mice ranged in age from 5 to 7 weeks and were placed on a normal diet for 2 weeks before study initiation. ApoE knockout mice were then fed ad libitum a 60% fat diet, with 0.15% added cholesterol to induce dyslipidemia and obesity. Control animals were maintained on a high-fat diet with no added cholesterol. […]
At study termination and forty eight hours after the final injections, animals were sacrificed and evaluated for target mRNA levels in liver by RT-PCR methods verified by Northern Blot analysis, glucose levels, cholesterol and lipid levels by HPLC separation methods and triglyceride and liver enzyme levels (performed by LabCorp Preclinical Services; San Diego, Calif.).
Data are normalized to saline controls.

[4] = Lean vs high fat fed C57BL/6 mice (Example 20): cholesterol, lipoprotein, triglyceride, liver enzyme and serum glucose levels; type: in vivo, mouse; settings: 50 mg/kg i.p. every three days, six weeks
Experimental: Male C57BL/6 mice were divided into two matched groups; (1) wild-type control animals (lean animals) and (2) animals receiving a high fat diet (60% kcal fat). Control animals received saline treatment and were maintained on a normal rodent diet. After overnight fasting, mice from each group were dosed intraperitoneally every three days with saline or 50 mg/kg ISIS 147764 (SEQ ID No: 109) for six weeks. At study termination and forty eight hours after the final injections, animals were sacrificed and evaluated for target mRNA levels in liver, cholesterol and triglyceride levels, liver enzyme levels and serum glucose levels.

[5] = tested on: mouse apolipoprotein B mRNA; assay: Long-term study in lean CD-1 mice (Example 63): apolipoprotein B mRNA in liver; type: in vivo; settings: after one month of treatment
Experimental: In accordance with the present invention, the toxicity of ISIS 301012 (SEQ ID NO: 247) is investigated in a long-term, 3 month study in mice. Two-month old male and female CD-1 mice (Charles River Laboratories, Wilmington, Mass.) are dosed with 2, 5, 12.5, 25 or 50 mg/kg of ISIS 301012 twice per week for first week, and every 4 days thereafter. The mice are maintained on a standard rodent diet. Saline and control oligonucleotide animals serve as controls and are injected on the same schedule. Each treatment group contains 6 to 10 mice of each sex, and each treatment group is duplicated, one group for a 1 month study termination, the other for a 3 month study termination. After the 1 or 3 month treatment periods, the mice are sacrificed and evaluated for target expression in liver, lipid levels in serum and indicators of toxicity. Liver samples are procured, RNA is isolated and apolipoprotein B mRNA expression is measured by real-time PCR as described in other examples herein. Serum lipids, including total cholesterol, LDL-cholesterol, HDL-cholesterol and triglycerides, are evaluated by routine clinical analysis using an Olympus Clinical Analyzer (Olympus America Inc., Melville, N.Y.). Ratios of LDL-cholesterol to HDL-cholesterol and total cholesterol to HDL-cholesterol are also calculated. […]

[6] = tested on: mouse apolipoprotein B mRNA; assay: Transgenic mice dosing study (Example 52): mouse apolipoprotein B mRNA in liver; type: in vivo; settings: for % Inhibition, mouse apolipoprotein B mRNA: liver, 12 weeks
Experimental: A long-term study of inhibition of human apolipoprotein B by ISIS 301012 in C57BL/6NTac-TgN(APOB100) mice (Taconic, Germantown, N.Y.) was conducted for a 3 month period. Mice were dosed intraperitoneally twice a week with 10 or 25 mg/kg ISIS 301012 (SEQ ID No: 247) for 12 weeks. Saline-injected animals served as controls. Each treatment group comprised 4 animals.
The study was terminated forty eight hours after the final injections in the eighth week of treatment, when animals were sacrificed and evaluated for target mRNA levels in liver, apolipoprotein B protein levels in liver and serum cholesterol and liver enzyme levels. In addition, the expression of endogenous mouse apolipoprotein B levels in liver was measured to evaluate any effects of ISIS 301012 on mouse apolipoprotein B mRNA expression.
Human and mouse apolipoprotein B mRNA levels in livers of animals treated for 12 weeks were measured by real-time PCR as described herein. Each result represents the average of data from 4 animals.

[7] = Lean-control group, C57BL/6 mice

## 147764 (eG*eT*e[5mC]*e[5mC]*e[5mC]*dT*dG*dA*dA*dG*dA*dT*dG*dT*d[5mC]*eA*eA*eT*eG*e[5mC]) [compound 147764]
[1]
  apolipoprotein B mRNA levels: able to lower
[1]; liver
  mRNA % control ApoB: 43.1 % control
[2]
  Glucose: 209.2 mg/dL
  Lipoproteins CHOL: 286.3 mg/dL
  Lipoproteins TRIG: 101.2 mg/dL
  Liver Enzymes ALT: 835.0 IU/L
  Liver Enzymes AST: 406.5 IU/L
  glucose, cholesterol, and triglyceride levels: able to lower

## GTCCCTGAAGATGTCAATGC (2'-MOE gapmer, further chemistry not given here) [ISIS 147764]
[3]; 5 mg/kg i.p. every three days
  mRNA Percent Inhibition: 2%
[3]; 25 mg/kg i.p. every three days
  mRNA Percent Inhibition: 42%
[3]; 50 mg/kg i.p. every three days
  mRNA Percent Inhibition: 70%
[4]; High Fat Group, C57BL/6 mice
  Percent Change CHOL: −67%
  Percent Change GLUC: −28%
  Percent Change Lipoproteins HDL: −65%
  Percent Change Lipoproteins LDL: −87%
[4]; [7]
  Percent Change CHOL: −63%
  Percent Change Lipoproteins HDL: −44%
  Percent Change Lipoproteins LDL: −64%
  Percent Change TRIG: −34%
[4]; lean and high fat C57BL/6 mice
  changes in liver enzyme levels: No significant changes

## ISIS 301012: SEQ ID NO: 247, antisense oligonucleotide targeted to human apolipoprotein B (antisense GCCTCAGTCTGCTTCGCACC; chemistry not given here)
[5]
  reduction of mouse apolipoprotein B mRNA levels in liver: 53%
[6]; 12 weeks of treatment
  mouse liver apolipoprotein B mRNA: unaffected
[6]; 10 mg/kg i.p. twice a week
  % Inhibition, mouse apolipoprotein B mRNA: 6%
[6]; 25 mg/kg i.p. twice a week
  % Inhibition, mouse apolipoprotein B mRNA: 6%
